Assay results as given in US11071737B2, “Drug inclusion complex, preparation thereof, and preparation method thereof” (priority 2015, dated 2021).
Values belong to the compound of their own block, whether it stands above or below them.

Assays:
[1] = Inclusion ability of different concentrations and kinds of cyclodextrins for encapsulating API
Protocol: Different kinds of cyclodextrins were dissolved with a pH 1.2 aqueous hydrochloric acid solution (0.1N) to determine the saturation concentration of each cyclodextrin.
(1) A certain amount of α-, β- and γ-cyclodextrin were weighed and added into a 10 mL volumetric flask, then added aqueous hydrochloric acid solution of pH 1.2 gradually until reaching the scale of the flask, shocked and performed ultrasound to dissolve the cyclodextrin. The maximum amount of cyclodextrin capable of being dissolved in a 10 mL solution was recorded.
(2) 8% α-cyclodextrin solution, 1% β-cyclodextrin solution, 20% γ-cyclodextrin solution, 20%, 30%, and 40% sulfobutyl ether-β-cyclodextrin solution and 20%, 30%, and 40% hydroxypropyl-β-cyclodextrin solution were formulated with hydrochloric acid aqueous solution of pH 1.2.
A certain amount of API was weighed and added into an appropriate volume of the cyclodextrin solution. If API was completely dissolved, the solution was filtered with a 0.45 μm PTFE filter membrane, and pH was slowly adjusted to 4.0 with a 5N NaOH aqueous solution and a 0.1N NaOH aqueous solution, observing during the pH adjusting procedure. If the solution becomes turbid when adjusting the pH, try to reduce the concentration of API. The clear solution after the pH adjustment was left to stand to observe the state of the solution after standing for 2 hours, 4 hours, and 24 hours.

[2] = Formulation of drug-containing HP-β-CD solutions (concentration by HPLC, observation on standing); conditions: 21 mg/ml added to 30% HP-β-CD solution pH 1.2, not completely dissolved, 0.45 μm PES filter
Protocol: The drug was dissolved completely by ultrasound (ultrasonic frequency was 59 kHz).
4. pH adjustment: The pH of the drug solution was adjusted to about 6.0 with 5N NaOH aqueous solution and 0.1 N NaOH aqueous solution.

SMILES: O=C(Cc1ccc(-c2ccc(N3CCOCC3)cc2)cn1)NCc1cccc(F)c1.O=S(=O)(O)c1ccccc1 [KX2-361.benzene sulfonate]
Solution phenomenon when pH is adjusted to 4 ([1]; API 0.5 mg/ml in 20% γ-CD (174:1)): turbid
concentration after filtering, calibrated with HPLC [2]: 20660 µg/mL

SMILES: OC[C@H]1O[C@@H]2O[C@H]3[C@H](O)[C@@H](O)[C@@H](O[C@H]4[C@H](O)[C@@H](O)[C@@H](O[C@H]5[C@H](O)[C@@H](O)[C@@H](O[C@H]6[C@H](O)[C@@H](O)[C@@H](O[C@H]7[C@H](O)[C@@H](O)[C@@H](O[C@H]1[C@H](O)[C@H]2O)O[C@@H]7CO)O[C@@H]6CO)O[C@@H]5CO)O[C@@H]4CO)O[C@@H]3CO [α-cyclodextrin]
maximum solubility in aqueous hydrochloric acid solution of pH 1.2 ([1]; % (w/v), 10 mL): about 8%

maximum solubility in aqueous hydrochloric acid solution of pH 1.2 ([1]; pH 1.2): about 1%
SMILES: OC[C@H]1O[C@@H]2O[C@H]3[C@H](O)[C@@H](O)[C@@H](O[C@H]4[C@H](O)[C@@H](O)[C@@H](O[C@H]5[C@H](O)[C@@H](O)[C@@H](O[C@H]6[C@H](O)[C@@H](O)[C@@H](O[C@H]7[C@H](O)[C@@H](O)[C@@H](O[C@H]8[C@H](O)[C@@H](O)[C@@H](O[C@H]1[C@H](O)[C@H]2O)O[C@@H]8CO)O[C@@H]7CO)O[C@@H]6CO)O[C@@H]5CO)O[C@@H]4CO)O[C@@H]3CO [β-cyclodextrin]

maximum solubility in aqueous hydrochloric acid solution of pH 1.2 ([1]; pH 1.2): about 20%
SMILES: OC[C@H]1O[C@@H]2O[C@H]3[C@H](O)[C@@H](O)[C@@H](O[C@H]4[C@H](O)[C@@H](O)[C@@H](O[C@H]5[C@H](O)[C@@H](O)[C@@H](O[C@H]6[C@H](O)[C@@H](O)[C@@H](O[C@H]7[C@H](O)[C@@H](O)[C@@H](O[C@H]8[C@H](O)[C@@H](O)[C@@H](O[C@H]9[C@H](O)[C@@H](O)[C@@H](O[C@H]1[C@H](O)[C@H]2O)O[C@@H]9CO)O[C@@H]8CO)O[C@@H]7CO)O[C@@H]6CO)O[C@@H]5CO)O[C@@H]4CO)O[C@@H]3CO [γ-cyclodextrin]
